Experimental data published in PMC5384001 (Scientific Reports, 2017).
Where a chain is given by its changes, count along the chain named.

Columns and labels:
GluD2-Lc(Y496F) = molecular target: T1, GluD2-Lc(Y496F) (Rattus norvegicus, UniProt Q63226, A654T/Y496F); experiment: Two-electrode voltage clamp in Xenopus oocytes, inhibition of spontaneous currents; type: cell-based; settings: fraction of spontaneous current inhibited by saturating D-serine
T1 construct: the function of full-length receptors as well, we introduced them into the GluD2 lurcher mutant (GluD2-Lc); expressed in transfected cells; host or cells: Xenopus laevis oocytes injected with cRNA
T1 sequence (Q63226 24-1007 Y496F/A654T): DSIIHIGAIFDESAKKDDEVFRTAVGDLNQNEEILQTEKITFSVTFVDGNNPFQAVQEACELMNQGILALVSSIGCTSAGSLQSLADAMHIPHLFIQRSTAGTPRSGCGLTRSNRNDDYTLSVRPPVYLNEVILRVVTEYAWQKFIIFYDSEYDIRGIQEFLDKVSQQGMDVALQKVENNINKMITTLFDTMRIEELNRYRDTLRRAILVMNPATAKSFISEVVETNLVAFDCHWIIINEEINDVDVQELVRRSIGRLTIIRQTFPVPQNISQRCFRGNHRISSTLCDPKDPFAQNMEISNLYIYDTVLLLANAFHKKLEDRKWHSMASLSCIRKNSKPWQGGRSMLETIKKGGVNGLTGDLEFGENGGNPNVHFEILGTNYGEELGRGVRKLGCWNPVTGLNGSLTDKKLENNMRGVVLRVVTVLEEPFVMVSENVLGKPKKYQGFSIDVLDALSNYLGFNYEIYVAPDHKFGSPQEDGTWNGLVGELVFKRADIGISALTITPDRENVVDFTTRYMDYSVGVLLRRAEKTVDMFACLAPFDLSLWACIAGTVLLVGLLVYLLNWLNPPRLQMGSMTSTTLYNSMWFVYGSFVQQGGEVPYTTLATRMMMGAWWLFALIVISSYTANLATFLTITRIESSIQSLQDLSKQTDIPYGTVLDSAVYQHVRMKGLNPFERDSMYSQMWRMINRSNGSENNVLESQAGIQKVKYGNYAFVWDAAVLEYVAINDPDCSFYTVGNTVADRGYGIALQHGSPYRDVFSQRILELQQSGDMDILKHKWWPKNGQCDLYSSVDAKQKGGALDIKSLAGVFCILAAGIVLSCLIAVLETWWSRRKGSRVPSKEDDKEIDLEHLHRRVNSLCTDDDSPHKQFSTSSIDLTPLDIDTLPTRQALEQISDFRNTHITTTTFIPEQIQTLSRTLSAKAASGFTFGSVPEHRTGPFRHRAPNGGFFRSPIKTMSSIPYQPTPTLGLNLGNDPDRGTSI
From the text: (§1) All cDNAs for expression in Xenopus oocytes were cloned into the vector pSGEM[30]. Point mutants of GluD2-Lc were constructed by overlap extension PCR with mutagenic oligonucleotide primers. The GluD2-Lc-(H)GluN1 chimera was constructed by transferring the S1- and S2-encoding sequences from GluD2-LBD-(H)GluN1 to GluD2-Lc via overlap extension PCR using tail primers. The S1 and S2 sequences were transferred separately, yielding GluD2-Lc-(HS1)GluN1 and GluD2-Lc-(HS2)GluN1 constructs. GluD2-Lc-(H)GluN1 was then produced from these by another overlap extension PCR. Complementary RNA (cRNA) for injection into oocytes was synthesised from 1 μg of linearised template DNA with the mMESSAGE mMACHINE in vitro transcription kit (Ambion, Austin, TX, USA).
(§2) Oocytes were obtained by surgically removing parts of the ovaries from Xenopus laevis (Nasco, Fort Atkinson, WI, USA) anaesthetised with 1.5 g/L 3-aminobenzoic acid ethylester (Sigma, Taufkirchen, Germany). […] Oocytes were injected with 11 ng cRNA (10 ng of each cRNA for co-expression of GluN1 and GluN2A) using a nanoliter injector (WPI, Sarasota, FL, USA). Four days after cRNA injection, current responses were recorded under voltage clamp at –70 mV with a Turbo Tec-10CD amplifier (npi electronic, Tamm, Germany) controlled by Patchmaster software (HEKA, Lambrecht, Germany). Currents were filtered with a 20 Hz low-pass filter and then digitised with a sampling rate of 50 Hz. Recording electrodes were pulled from borosilicate glass (Hilgenberg, Malsfeld, Germany) with an L/M-3P-A vertical pipette puller (List-Medical), filled with 3 M KCl, and had resistances of 0.5–5 MΩ (voltage electrode) or 0.5–1.5 MΩ (current electrode). Recordings were performed in a 50 μL chamber under constant superfusion with extracellular solution at a flow rate of 3–5 mL/min. […] Finally, Ba-NFR and then NMDGR were applied again to check for reversibility.

GluD2-Lc(Y770F) = molecular target: T2, GluD2-Lc(Y770F) (Rattus norvegicus, UniProt Q63226, A654T/Y770F); experiment: as above; type: cell-based; settings: fraction of spontaneous current inhibited by saturating D-serine
T2 construct: the function of full-length receptors as well, we introduced them into the GluD2 lurcher mutant (GluD2-Lc); expressed in transfected cells; host or cells: Xenopus laevis oocytes injected with cRNA
T2 sequence (Q63226 24-1007 A654T/Y770F): T1 sequence (Q63226 24-1007 Y496F/A654T) with F473Y, Y747F
From the text: as §1, §2

With `N[C@H](CO)C(=O)O` [D-serine] the “D-serine efficacy Mean ± SEM” value (GluD2-Lc(Y496F)) was 43.5 ± 2.0% and the “D-serine efficacy Mean ± SEM” value (GluD2-Lc(Y770F)) was 59.9 ± 1.7%.
